Experimental data published in US9950026B2, “Methods for reducing oxidative damage” (Cornell Research Foundation, Inc., priority 2004, dated 2018).
Where a SMILES comes first, the peptide text is derived from it. [ ]: non-standard residue; d: D form. Dmt = Cc1cc(O)cc(C)c1C[C@H](N)C(=O)O

Assays:
DBA/2 mice islets = experiment: Islets isolated from donor mice pre-treated with SS-31 (TMRM, yield, Annexin V/PI flow cytometry); type: in vivo
Method: FIG. 33A-33B. SS peptides penetrate islet cells, co-localize with mitochondria and preserve islet mitochondrial membrane potential. (A) Islet cell uptake of SS-31. DBA/2 islet cells were incubated with 1 nM of tritium labeled SS-31 and 1 μM unlabeled SS-31 at 37° C. for 1 h. Following incubation, radioactivity was measured in the medium and in cell lysates and the radioactive counts in the medium were subtracted from radioactive counts in the cell lysate and normalized to protein content. In four consecutive experiments, the mean±(SE) [^3H]SS-31 uptake was 70.2+/31 10.3 pmol/mg, of proteins (B)(i-iv) SS-31 preserves islet mitochondrial potential. DBA/2 mice were treated with SS-31 (3 mg/kg s.c. BID) or vehicle control 24 hours prior to pancreas harvest for islet isolation. SS-31 treated groups had 1 nM SS-31 added to the islet isolation reagents. Following isolation, TMRM uptake was evaluated using confocal laser scanning microscopy.
FIG. 34A-34D. SS-31 reduces islet cell apoptosis. DBA/2 mice were pre-treated (24 and 12-hours hours prior to pancreas harvest and islet isolation) with SS-31 (3 mg/kg, s.c., BID) or vehicle control. SS-31 (1 nM was added to reagents used for the isolation of islets from SS-31-treated mice. The islets were dissociated in to single cells with trypsin/EDTA and were stained with Annexin V-FITC (AnV) and propidium iodide (PI) and analyzed with the use of dual parameter low cytometry. (A) Percentage of cell undergoing early apoptosis (AnV+cells); P=0.03. (B) Percentage of cells undergoing late apoptosis/early necrosis (AnV+/PI+cells); P=0.03. (C) Percentage of necrotic cells (PI+cells); P=1.0 (D) Percentage of viable cells (AnV-/PI-cells); P=0.03. Data from individual pancreatic islet isolations and mean±SE are shown, N=number of separate islet isolations. Two-tailed P-values were calculated using Mann-Whitney t-test.
Mitochondrial depolarization and the release of cytochrome c into the cytoplasm are critical antecedent events to cell death. TMRM, a fluorescent cationic indicator is taken up into mitochondria in a potential dependent manner.
To investigate whether the SS-31 optimizes islet isolation and results in increased islet yield, islet donor mice were pre-treated with SS-31.

N2A cells [1] = experiment: Mitochondrial potential (TMRM) after tBHP; type: cell-based, murine; conditions: 0.1 mM t-BHP, 1 nM SS-31, 6 h
Method: N2A cells in glass bottom dish were treated with 0.1 mM t-BHP, alone or with 1 nM SS-31, for 6 h. Cells were then loaded with 10 μm of dichlorofluorescin (ex/em=485/530) for 30 min at 37° C., 5% CO2. Then cells were subjected 3 times wash with HBSS and stained with 20 nM of Mitotracker TMRM (ex/em=550/575 nm) for 15 min at 37° C. and examined by confocal laser scanning microscopy.

N2A cells [2] = experiment: Caspase-9 activity (FLICA) after tBHP; type: cell-based, murine; conditions: 50 μM tBHP, 12 h, 1 nM SS-31
Method: FIG. 21A-B. SS-31 prevented caspase activation in N2A cells treated with tBHP. […] (B)(a-c) N2A cells were treated with 50 μM tBHP for 12 h and stained with caspase-9 FLICA™ kit containing red fluorescent inhibitor SR-LEHD-FMK and Hoechst 33342.

SH-SY5Y = experiment: tBHP-induced LDH release; type: cell-based, human; conditions: 100 μM tBHP
Method: FIG. 18A-18B. SS-31 reduced tBHP-induced LDH release in SH-SY5Y (A) and N2A (B) cells. Cells were treated with 100 μM tBHP alone, or with SS-31, for 24 h. *P<0.05, **P<0.01, ***P<0.001, compared to tBHP alone.
The loss of cell viability induced by 100 μM tBHP was accompanied by a significant increase in LDH release in SH-SY5Y (FIG. 18A) and N2A cell (FIG. 18B).

SN-4741 cells = experiment: MPP+ toxicity, apoptosis by Hoechst 33342; type: cell-based; conditions: 50 μM MPP+, 1 nM SS-31, 48 h
Method: (A) SS-31 protects dopamine cells against MPP^+ toxicity. SN-4741 cells were treated with buffer, 50 μM MPP^+ or 50 μM MPP^+ and 1 nM SS-31, for 48 h, and the incidence of apoptosis was determined by fluorescent microscopy with Hoechst 33342.

N2A cells [3] = experiment: Lipid peroxidation, HNE Michael adducts, after tBHP; type: cell-based, murine; conditions: t-BHP 1 mM, 3 h
Method: Lipid peroxidation was evaluated by measuring HNE Michael adducts. 4-HNE is one of the major aldehydic products of the peroxidation of membrane polyunsaturated fatty acids. N2A cells were seeded on glass bottom dish 1 day before t-BHP treatment (1 mM, 3 h, 37° C., 5% CO2) in the presence of absence of SS-31 (10^−8 to 10^−10 M). Cells were then washed twice with PBS and fixed 30 min with 4% paraformaldehyde in PBS at RT and then washed 3 times with PBS. Cells were then permeabilized, treated with rabbit-anti-HNE antibody followed by the secondary antibody (goat anti-rabbit IgG conjugated to biotin). Cells were mounted in Vectashield and imaged using a Zeiss fluorescence microscope using an excitation wavelength of 460±20 nm and a longpass filter of 505 nm for emission.

N2A cells [4] = experiment: Pan-caspase activity (FLICA kit) after tBHP; type: cell-based, murine
Method: FIG. 21A-B. SS-31 prevented caspase activation in N2A cells treated with tBHP. […]
[…] All treatments were carried out in quadriplicates. […] Cells were gently lifted from the plates with a cell detachment solution (Accutase, Innovative Cell Technologies, Inc., San Diego, Calif.) and washed twice in PBS. Caspase activity was assayed using the FLICA kit (Immunochemistry Technologies LLC, Bloomington, Minn.) According to the manufacturer's recommendation, cells were resuspended (approx. 5×10^6 cells/ml) in PBS and labeled with pan-caspase inhibitor FAM-VAD-FMK for 1 h at 37° C. under 5% CO2 and protected from the light. Cells were then rinsed to remove the unbound reagent and fixed. Fluorescence intensity in the cells was measured by a […] (Beckman-Coulter XL, Beckman Coulter, Inc., Fullerton, Calif.) using the standard emission filters for green (FL1). For each run, 10,000 individual events were collected and stored in list-mode files for off-line analysis.

Q: Which “uptake of TMRM by islets (mitochondrial potential)” value (DBA/2 mice islets; SS-31 3 mg/kg s.c. BID to donor, 1 nM in isolation reagents) does the source give for `Cc1cc(O)cc(C)c1C[C@H](NC(=O)[C@H](N)CCCNC(=N)N)C(=O)N[C@@H](CCCCN)C(=O)N[C@@H](Cc1ccccc1)C(N)=O` [SS-31, D-Arg-2′6′-Dmt-Lys-Phe-NH2] (H-[dR][Dmt]KF-NH2; N-terminus assumed) here?
A: greater uptake of TMRM

Q: What about the “islet yield, mean±(SE)” value (DBA/2 mice islets; donor mice pre-treated with SS-31) of the same compound?
A: 291±60 islets per pancreas

Q: And the “islet cell viability (Annexin V-/PI- cells)” value (DBA/2 mice islets; donor mice treated with SS-31)?
A: 62±3.5%

Q: And the “late apoptosis/early necrosis (Annexin V+/PI+ cells)” value (DBA/2 mice islets; donor mice treated with SS-31)?
A: 12.6±1.8%

Q: What about the “percentage of early apoptotic cells (Annexin V alone positive cells)” value (DBA/2 mice islets; donor mice treated with SS-31) of the same compound?
A: 5.5±1.0%

Q: And the “percentage of necrotic cells (PI+ cells)” value (DBA/2 mice islets; donor mice treated with SS-31)?
A: did not reduce

Q: What about the “mitochondrial depolarization (TMRM fluorescence)” value (N2A cells [1]) of the same compound?
A: prevented mitochondrial depolarization

Q: And the “cells showing caspase-9 staining” value (N2A cells [2])?
A: reduced the number of cells showing caspase-9 staining

Q: What about the LDH release (SH-SY5Y; 0.1 and 1 nM of SS-31) of the same compound?
A: reduced significantly

Q: What about the LDH release (SH-SY5Y; 24 h) of the same compound?
A: dose-dependent decrease

Q: And the “number of apoptotic cells” value (SN-4741 cells)?
A: reduced the number of apoptotic cells

Q: What about the “lipid peroxidation (HNE adducts)” value (N2A cells [3]) of the same compound?
A: inhibited lipid peroxidation

Q: What about the “increase in pan-caspase activity” value (N2A cells [4]; 100 μM tBHP, 24 h) of the same compound?
A: dose-dependently prevented

Q: What about the caspase activity (N2A cells [4]; t-BHP 12 h) of the same compound?
A: dose-dependently inhibited
